Patent publication US7129269B2, “Compound” (Sterix Ltd., priority 1996, dated 2006)
“And” between values parts separate entries of the source, which are not always exact repeats. Equal values may be shown once.

Key:
[1] = target: T1, oestrone sulphatase (E1-STS) (Homo sapiens, UniProt P08842); test: Oestrone sulphatase (E1-STS) inhibition in intact MCF-7 breast cancer cells; assay type: cell-based
T1 construct: endogenous in cells; host or cells: MCF-7 breast cancer cells
T1 sequence (P08842 22-583): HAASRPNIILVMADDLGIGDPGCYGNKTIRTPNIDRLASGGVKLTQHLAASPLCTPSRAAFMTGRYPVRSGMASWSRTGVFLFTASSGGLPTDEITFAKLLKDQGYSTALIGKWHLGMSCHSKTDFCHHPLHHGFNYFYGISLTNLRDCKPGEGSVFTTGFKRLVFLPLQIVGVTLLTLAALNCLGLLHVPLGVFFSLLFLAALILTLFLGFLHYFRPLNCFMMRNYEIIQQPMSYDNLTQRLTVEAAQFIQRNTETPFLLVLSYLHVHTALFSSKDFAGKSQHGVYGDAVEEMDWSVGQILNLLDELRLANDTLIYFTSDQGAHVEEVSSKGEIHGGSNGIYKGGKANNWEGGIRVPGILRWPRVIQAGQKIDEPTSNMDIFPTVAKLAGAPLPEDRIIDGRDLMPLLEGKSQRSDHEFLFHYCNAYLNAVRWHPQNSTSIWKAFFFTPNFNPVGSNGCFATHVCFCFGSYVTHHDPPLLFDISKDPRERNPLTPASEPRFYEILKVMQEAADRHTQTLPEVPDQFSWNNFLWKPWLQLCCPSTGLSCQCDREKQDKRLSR

[2] = target: T2, oestrone sulphatase (Rattus norvegicus, UniProt P15589); test: In vivo inhibition of oestrone sulphatase activity in rat liver; settings: 24 hours after single oral dose in propylene glycol; for % Inhibition of oestrone sulphatase in vivo: 10 mg/Kg
T2 construct: from tissue; host or cells: rat liver
T2 sequence (P15589 20-577): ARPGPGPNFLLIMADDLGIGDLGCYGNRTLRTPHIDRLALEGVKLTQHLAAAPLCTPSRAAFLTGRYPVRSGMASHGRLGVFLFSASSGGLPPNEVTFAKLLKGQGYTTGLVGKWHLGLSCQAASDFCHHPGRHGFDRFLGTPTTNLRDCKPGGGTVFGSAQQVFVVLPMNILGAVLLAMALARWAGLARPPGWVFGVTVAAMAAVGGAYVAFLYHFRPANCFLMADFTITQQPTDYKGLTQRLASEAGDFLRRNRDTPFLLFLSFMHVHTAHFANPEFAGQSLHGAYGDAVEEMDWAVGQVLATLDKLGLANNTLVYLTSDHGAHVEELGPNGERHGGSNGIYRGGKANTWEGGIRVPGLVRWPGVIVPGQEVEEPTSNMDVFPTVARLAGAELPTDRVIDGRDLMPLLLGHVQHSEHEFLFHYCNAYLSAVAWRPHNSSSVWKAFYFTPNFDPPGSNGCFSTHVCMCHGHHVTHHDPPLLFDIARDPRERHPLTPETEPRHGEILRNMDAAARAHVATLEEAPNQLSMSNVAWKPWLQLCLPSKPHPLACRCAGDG
Protocol: FIG. 11 presents in vivo inhibition of oestrone sulphatase activity in rat liver for two isoflavones according to the present invention. […] Compounds were administered as a single 10 mg/Kg dose. Oestrone sulphatase activity was assayed in tissue samples obtained 24 h after drug administration.

[3] = target: T3, aromatase (Homo sapiens, UniProt P11511); test: Aromatase inhibition in placental microsomes, tritiated water release assay
T3 sequence (P11511 1-503): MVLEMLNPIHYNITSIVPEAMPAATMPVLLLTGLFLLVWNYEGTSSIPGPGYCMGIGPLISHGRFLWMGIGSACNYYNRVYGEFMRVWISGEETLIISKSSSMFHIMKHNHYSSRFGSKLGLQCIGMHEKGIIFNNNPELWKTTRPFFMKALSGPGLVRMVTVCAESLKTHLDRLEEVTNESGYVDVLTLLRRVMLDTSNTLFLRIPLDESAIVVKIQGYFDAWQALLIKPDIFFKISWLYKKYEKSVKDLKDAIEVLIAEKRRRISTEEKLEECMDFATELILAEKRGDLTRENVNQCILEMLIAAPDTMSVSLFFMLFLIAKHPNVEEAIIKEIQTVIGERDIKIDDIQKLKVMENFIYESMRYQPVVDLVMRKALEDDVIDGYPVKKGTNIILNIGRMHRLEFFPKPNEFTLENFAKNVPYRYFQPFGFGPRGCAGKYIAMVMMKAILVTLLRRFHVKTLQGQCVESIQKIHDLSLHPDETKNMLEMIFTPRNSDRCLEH

Compound | % Inhibition of sulphatase activity in MCF-7 cells ([1]; 0.1 μM) | % Inhibition of sulphatase activity in MCF-7 cells ([1]; 1 μM) | % Inhibition of sulphatase activity in MCF-7 cells ([1]; 10 μM) | % Inhibition of oestrone sulphatase in vivo [2] | % Inhibition of aromatase activity in placental microsomes at 10 μM [3] | inhibition at 1 mg/kg ([2]; 1 mg/Kg)
COc1ccc(C2CC(=O)c3c(O)cc(OS(N)(=O)=O)cc3O2)cc1OS(N)(=O)=O (stereo not drawn) [Compound 21, 5-Hydroxy 4′-methoxy flavanone-3′,7-O,O-bisulphamate] | 2 ± 1.3% | 8 ± 0.6% | 9 ± 1.2% |  |  | 
NS(=O)(=O)Oc1ccc2oc(-c3ccccc3)cc(=O)c2c1 [Compound 2, Flavone-6-O-sulphamate] |  | 99.1 ± 0.6% | 98.9 ± 1.3% |  |  | 
COc1ccc(-c2cc(=O)c3c(OC)c(OC)c(OC)cc3o2)cc1OS(N)(=O)=O [Compound 7, 4′,5,6,7-Tetramethoxy flavone-3′-O-sulphamate] | 29 ± 0.8% | 23 ± 1.8% | 12 ± 0.5% |  |  | 
COc1cc(-c2oc3cc(OS(N)(=O)=O)cc(O)c3c(=O)c2OS(N)(=O)=O)cc(OC)c1OC [Compound 12, 5-Hydroxy-3′,4′,5′-Trimethoxy flavone-3,7-O,O-bisulphamate] | * (*Inactive) | * (*Inactive) | * (*Inactive) |  |  | 
NS(=O)(=O)Oc1cc(O)c2c(=O)c(OS(N)(=O)=O)c(-c3ccccc3)oc2c1 [Compound 10, 5-Hydroxy flavone-3,7-O,O-bisulphamate] | * (*Inactive) | 8 ± 6.4% | 12 ± 7.5% |  |  | 
COc1ccc(-c2oc3cc(OS(N)(=O)=O)cc(O)c3c(=O)c2OS(N)(=O)=O)cc1 [Compound 11, 5-Hydroxy-4′-methoxy flavone-3,7-O,O-bisulphamate] | * (*Inactive) | * (*Inactive) | * (*Inactive) |  |  | 
NS(=O)(=O)Oc1ccc2c(=O)cc(-c3ccccc3)oc2c1 [Compound 1, Flavone-7-O-sulphamate] | 0.30 ± 0.2% | 1.8 ± 1.0% | 4.9 ± 0.3% |  |  | 
NS(=O)(=O)Oc1ccc(-c2coc3cc(O)cc(O)c3c2=O)cc1 [Compound 18, 5,7-Dihydroxy isoflavone-4′-O-sulphamate] | 23 ± 2.2% | 83 ± 2.7% | 99 ± 0.7% | 62.0 ± 4.7% | * (*Inactive) | 
COc1cc(-c2oc3cc(O)cc(O)c3c(=O)c2OS(N)(=O)=O)cc(OC)c1OC [Compound 13, 5,7-Dihydroxy-3′,4′,5′-Trimethoxy flavone-3-O-sulphamate] | * (*Inactive) | * (*Inactive) | * (*Inactive) |  |  | 
NS(=O)(=O)Oc1ccc(-c2cc(=O)c3c(O)cc(OS(N)(=O)=O)cc3o2)cc1 [Compound 9, 5-Hydroxy flavone-4′,7-O,O-bisulphamate] | 8 ± 2.6% | 79 ± 0.8% | 98 ± 0.4% |  |  | 
NS(=O)(=O)Oc1ccc(-c2coc3cc(OS(N)(=O)=O)ccc3c2=O)cc1 [Compound 19, Isoflavone-4′,7-O,O-bisulphamate] |  |  |  | 71.4 ± 2.9% | * (*Inactive) | 
C[C@]12CC[C@@H]3c4ccc(OS(N)(=O)=O)cc4CC[C@H]3[C@@H]1CCC2=O [EMATE, oestrone-3-sulphamate, reference compound] |  |  |  |  |  | > 99%
NS(=O)(=O)Oc1ccc(-c2coc3cc(OS(N)(=O)=O)cc(O)c3c2=O)cc1 [Compound 17, 5-Hydroxy isoflavone-4′,7-O,O-bisulphamate] | 22–87% and 28 ± 1.7% | 79–99% |  | 81.4 ± 3.2% | * (*Inactive) | 
COc1cc(-c2oc3cc(OS(N)(=O)=O)ccc3c(=O)c2OS(N)(=O)=O)cc(OC)c1OC [Compound 14, 3′,4′,5′-Trimethoxy flavone-3,7-O,O-bisulphamate] | * (*Inactive) | * (*Inactive) | * (*Inactive) |  |  | 
COc1cc(-c2oc3cc(O)ccc3c(=O)c2OS(N)(=O)=O)cc(OC)c1OC [Compound 15, 7-Hydroxy 3′,4′,5′-Trimethoxy flavone-3-O-sulphamate] | * (*Inactive) | * (*Inactive) | * (*Inactive) |  |  | 
NS(=O)(=O)Oc1ccc(-c2cc(=O)c3ccccc3o2)cc1OS(N)(=O)=O [Compound 8, Flavone-3′,4′-O,O-bisulphamate] | * (*Inactive) | 13 ± 8.0% | 29 ± 1.3% |  |  | 
COc1cc(O)c2c(=O)cc(-c3ccc(OS(N)(=O)=O)cc3)oc2c1 [Compound 5, 5-Hydroxy-7-methoxy-flavone-4′-O-sulphamate] | 35 ± 4.0% | 88 ± 3.1% | 99 ± 0.6% |  |  | 
COc1ccc(-c2cc(=O)c3c(O)c(OC)c(OC)cc3o2)cc1OS(N)(=O)=O [Compound 6, 5-Hydroxy 4′,6,7-Trimethoxy flavone-3′-O-sulphamate] | * (*Inactive) | 18 ± 6.1% | 27 ± 3.5% |  |  | 
COc1ccc(-c2coc3cc(OS(N)(=O)=O)cc(O)c3c2=O)cc1 [Compound 16, 5-Hydroxy-4′-methoxyisoflavone 7-O-sulphamate] | * (*Inactive) | 11 ± 3.0% | 37 ± 1.7% |  | * (*Inactive) | 
COc1cc2oc(-c3ccccc3)cc(=O)c2c(O)c1OS(N)(=O)=O [Compound 4, 5-Hydroxy-7-methoxy flavone-6-O-sulphamate] | 11 ± 2.7% | 51 ± 3.0% | 78 ± 1.7% |  |  | 
